Measured values published in publication PMC7053711, “A G protein–coupled receptor mediates neuropeptide-induced oocyte maturation in the jellyfish Clytia” (PLoS Biology, 2020).
Peptide text beside a SMILES is read from it.

Assays:
Clytia MIHR [1] = test: GPCR deorphanization assay, luminescence response to peptides at 1 μM (CHO-K1 cells, Gα-16, GFP-apoaequorin); assay type: cell-based, Clytia hemisphaerica; details: peptide 1E-6M, normalised to Platynereis FLamide receptor + 1 μM AKYFL-NH2, n = 3
Source text: We used a cell culture–based GPCR deorphanization assay to identify the MIH receptor from our candidate shortlist. cDNAs for each candidate were transfected into Chinese Hamster ovary K1 (CHO-K1) cells along with the promiscuous Gα protein Gα-16, and an aequorin-GFP luminescence reporter that measures Ca^2+ mobilization downstream of this heterologous Gα protein [27, 28]. We first screened the 16 candidate Clytia GPCRs against a mixture of 33 synthetic amidated peptides (including MIHs) predicted to be generated from previously identified putative Clytia neuropeptide precursors and one additional one identified from transcriptome data. Given our imperfect knowledge of pro-peptide processing in cnidarians, some of the synthetic peptides may not correspond to endogenous peptides. Only one of the 16 GPCRs was activated by this peptide mixture. This receptor responded well to all 4 synthetic Clytia MIH tetrapeptides, as well as to related Cladonema MIH peptides that can also activate Clytia oocyte maturation, but not to other Clytia peptide mixtures or poorly active MIH penta-/tripeptides. We termed this Clytia GPCR the Maturation Inducing Hormone Receptor (MIHR). The activity of individual peptides at 1 μM to stimulate the MIHR closely matched their in vivo ability to induce oocyte maturation (Fig 1B).
(§1) Cell culture GPCR ligand response assays were performed as described. Briefly, CHO-K1 cells were cultured in Ham’s F12 Nut Mix medium (Thermo Fisher Scientific) with 10% foetal bovine serum. Cells were seeded in 96-well plates at approximately 10,000 cells/well and transfected the following day with pcDNA3.1(+) plasmids encoding each of the 16 candidate Clytia GPCRs (S2 Text), the promiscuous Gα-16 protein [65], and a reporter construct GFP-apoaequorin [66] (60 ng each) using the transfection reagent TurboFect (Thermo Fisher Scientific). After 2 days of expression, the medium was removed and replaced with Hank’s balanced salt solution (HBSS) supplemented with 1.8 mM Ca2+, 10 mM glucose, and […] coelenterazine h (Promega, Madison, WI). After incubation at 37 °C for 2 hours, cells were tested by adding synthetic peptides (GenScript) in HBSS supplemented with 1.8 mM Ca2^+ and 10 mM glucose. A list of all synthetic peptides used is provided in S2 Table. Luminescence was recorded for 45 seconds in a plate reader (BioTek Synergy Mx or Synergy H4; BioTek, Winooski, VT). Data were integrated over the 45-second measurement period and recorded as technical triplicates in each case. Data were normalized using the response of Platynereis FLamide receptor to 1 μM AKYFL-NH2 [28]. Dose–response curves were obtained using concentrations between 0.01 nM and 100 μM for each peptide. Data for dose–response curves were recorded in triplicate for each concentration and the experiment was repeated independently 3 times. Dose–response curves were fitted with a four-parameter curve using Prism 6 (GraphPad, La Jolla, CA) and were normalized to the calculated upper plateau values (100% activation).
Supplementary file pbio.3000614.s011.xlsx: S1 Data Numerical data corresponding to Fig 1B. Raw luminescence values obtained in triplicate for each of the neuropeptide combinations tested against the MIHR in the deorphanization assay are provided. In the right-hand table, the raw luminescence values obtained in quadruple for the positive and negative controls are provided. In the lower table, means and standard errors of the mean of the luminescence values obtained for each neuropeptide combination and controls are also shown, as well as the values normalized to the positive control, which were used to prepare the graph shown in Fig 1B. MIHR, MIH receptor. (XLSX) Click here for additional data file.

Clytia MIHR [2] = test: Dose–response curves of Clytia MIHR, luminescence (CHO-K1 cells, Gα-16, GFP-apoaequorin); assay type: cell-based, Clytia hemisphaerica; set-up: key to Span (best-fit value) / Bottom (best-fit value): % activation, normalized to fitted upper plateau (100%); details: for EC50: four-parameter fit, variable slope, triplicate; for HillSlope / LogEC50: best-fit value; for Span / Top / Bottom: best-fit value (luminescence)
Method: The Clytia MIH amidated peptides are produced from two precursor genes Che-pp4 (generating multiple copies of WPRAamide, WPRYamide, and WPRPamide) and Che-pp1 (multiple copies of WPRPamide and RPRGamide).
as §1
Supplementary file pbio.3000614.s012.xlsx: S2 Data Numerical data corresponding to Fig 1C. The first three tabs show statistical values obtained using Prism 6 software (GraphPad, La Jolla, CA) from the raw luminescence values for 3 independent dose–response experiments. The raw luminescence values are shown, as well as the values normalized with respect to the maximum. […] MIH, maturation-inducing hormone. (XLSX) Click here for additional data file.

[3] = tested on: MIHR mutant (n5-23, n5-13) isolated female gonads; test: Gonad spawning assay, MIHR mutant isolated gonads; set-up: species or system Clytia hemisphaerica; details: for Gonads spawning (number) / Percentage of spawning gonads: 4mM BrcAMP, MIH R K.O.
Method: (§2) We performed a series of oocyte maturation and spawning assays, comparing the responses of wild-type and MIHR mutant isolated gonads and oocytes to different stimuli (Fig 4).
(§3) Sexually mature MIHR mutant medusae from colonies n5-13 and n5-23 and wild-type medusae were cultured on the same day–night cycle. Individual gonads were dissected in the evening after afternoon spawning. To test the light response, one group of each was transferred to 100 μL MFSW in wells of 96-well plastic plates, covered overnight, and re-exposed to white light the following day. To test responses to MIH and cAMP, other groups of dissected gonads were cultured overnight in constant light, then transferred to 96-well plastic plates for two hours. MIH was added to wells as an equal volume of 200 nM WPRPamide (GenScript) stock in MFSW was added to give a final concentration of 100 nM. Alternatively, a stock of 20 mM bromo adenosine 3′,5′cyclic monophosphate (Br-cAMP–Fluka; Sigma Aldrich) in distilled water was added to give a final concentration of 4 mM. Gonads were washed after 5 minutes incubation in Br-cAMP. Oocyte maturation was scored after 30 minutes as germinal vesicle breakdown (GVBD), i.e., visible dissolution of the oocyte nuclear membrane upon entry into M phase, which in all cases was followed by spawning about 1 hour later.
(§4) Supplementary file pbio.3000614.s013.xlsx: S3 Data Numerical data corresponding to Fig 4A and 4C. The first tab collects all the raw data from 3 independent gonad spawning assays. Information corresponding to the Fisher exact tests is also shown. […] The means and standard deviations were used to prepare the graph in Fig 4C. Information corresponding to the Fisher exact tests is also shown. (XLSX) Click here for additional data file.

[4] = tested on: fully grown oocytes isolated from WT gonads; test: Oocyte maturation assay, wild-type isolated oocytes (GVBD); assay type: cell-based, Clytia hemisphaerica; details: for Oocyte maturation (number) / Percentage of Oocytes maturing: 4mM BrcAMP, wild type
Source text: (§5) Fig 4 Oocyte maturation failure in MIHR mutant medusae. Oocyte maturation assays performed using isolated gonads (A, B) or isolated oocytes (C) from MIHR mutant jellyfish compared to WT. In A and C, bar heights represent mean percentages of 3 independent experiments and error bars show standard deviations. Total gonad or oocyte numbers for each treatment are indicated in gray. (A) Spawning response of isolated gonads from WT and n5-23 female medusae. Three treatments were compared as indicated above each panel: Light: light stimulation after incubation in the dark; MIH: treatment of light-maintained gonads with 100 nM WPRPamide; cAMP: treatment of light-maintained gonads with 4 mM Br-cAMP. […] Full datasets from three independent experiments are available in S3 Data. (B) Light microscope images illustrating gonads from an equivalent experiment performed with n5-13 female MIHR mutant medusae 120 minutes after the indicated treatments. Scale bar: 500 μm. […] Full datasets from 3 independent experiments are available in S3 Data. Br-cAMP, bromoadenosine 3′,5′-cyclic monophosphate; cAMP, cyclic adenosine monophosphate; KO, knockout; MIH, maturation-inducing hormone; MIHR, MIH receptor; WT, wild-type.
(§6) Fully grown oocytes were isolated manually from dissected gonads of wild-type and MIHR KO mutant jellyfish prepared as above. Maturation assays were performed in wells of 96-well plates or small plastic petri dishes lined with 2% agarose in MFSW. Spontaneous maturation occurs at a low frequency in control oocytes. To test MIH-induced maturation, 10 μL WPRPamide from 1 μM solution in MFSW was added to a final concentration of 100 nM. In some experiments, Br-cAMP from a 20 mM stock in H2O was used at a final concentration of 4 mM. GVBD was scored at 30 minutes, every 5 minutes, depending on experiments.
as §4

[5] = tested on: wild-type (WT) isolated female gonads; test: Gonad spawning assay, wild-type isolated gonads; set-up: species or system Clytia hemisphaerica; details: for Gonads spawning (number) / Percentage of spawning gonads: 4mM BrcAMP
Method: as §2, §3, §4

[6] = tested on: fully grown oocytes isolated from MIHR mutant (n5-23) gonads; test: Oocyte maturation assay, MIHR mutant isolated oocytes (GVBD); assay type: cell-based, Clytia hemisphaerica; details: for Oocyte maturation (number) / Percentage of Oocytes maturing: 4mM BrcAMP, MIH R K.O.
Source text: as §5, §6, §4

[7] = log(agonist) vs. response, variable slope (four parameters), fit of third dataset
[8] = BrcAMP, pooled n=29, Fisher exact test vs WT not significant at p < .01
[9] = BrcAMP, pooled n=59, Fisher exact test vs MIHR KO 0.215946, not significant at p < .01
[10] = wild type, replicate 1, total 12
[11] = wild type, replicate 2, total 10
[12] = wild type, replicate 3, total 10
[13] = BrcAMP, pooled n=32, Fisher exact test vs MIHR KO not significant at p < .01
[14] = BrcAMP, pooled n=92, Fisher exact test vs WT 0.215946, not significant at p < .01

Molecule: RPRP-NH2 [RPRPa, Cladonema MIH tetrapeptide, RPRP-NH2]
- Normalised response (to positive control), mean (Clytia MIHR [1]): 0.33

Molecule: N=C(N)NCCC[C@H](NC(=O)[C@@H]1CCCN1C(=O)[C@@H](N)CCCNC(=N)N)C(=O)NCC(N)=O [RPRGa] (H-RPRG-NH2; N-terminus assumed)
- Normalised response (to positive control), mean (Clytia MIHR [1]): 0.2052
- EC50 (Clytia MIHR [2]; dataset/experiment 1): 0.724 µM
- EC50 (Clytia MIHR [2]; dataset/experiment 2): 2.21 µM
- HillSlope (Clytia MIHR [2]; first dataset): 1.15
- LogEC50 (Clytia MIHR [2]; first dataset): -6.14
- Span (Clytia MIHR [2]; first dataset): 80378
- Top (Clytia MIHR [2]; first dataset): 82566
- HillSlope (best-fit value) (Clytia MIHR [2]; [7]): 1.139
- LogEC50 (best-fit value) (Clytia MIHR [2]; [7]): -5.859
- Span (best-fit value) (Clytia MIHR [2]; [7]): 89.45
- HillSlope (Clytia MIHR [2]; second dataset): 0.9524
- LogEC50 (Clytia MIHR [2]; second dataset): -5.656
- Span (Clytia MIHR [2]; second dataset): 33216
- Top (Clytia MIHR [2]; second dataset): 36059
- EC50 / relative activity on MIHR (Clytia MIHR [2]; three independent dose–response experiments): the lowest

Molecule: AWPRP-NH2 [AWPRPa]
- Normalised response (to positive control), mean (Clytia MIHR [1]): 0.02128

Molecule: C[C@H](NC(=O)[C@H](CCCNC(=N)N)NC(=O)[C@@H]1CCCN1C(=O)[C@@H](N)Cc1c[nH]c2ccccc12)C(N)=O [WPRAa] (H-WPRA-NH2; N-terminus assumed)
- Normalised response (to positive control), mean (Clytia MIHR [1]): 0.2465
- EC50 (Clytia MIHR [2]; dataset/experiment 1): 0.14 µM
- EC50 (Clytia MIHR [2]; dataset/experiment 2): 0.94 µM
- HillSlope (Clytia MIHR [2]; first dataset): 1.505
- LogEC50 (Clytia MIHR [2]; first dataset): -6.854
- Bottom (Clytia MIHR [2]; first dataset): 1277
- Span (Clytia MIHR [2]; first dataset): 50384
- Top (Clytia MIHR [2]; first dataset): 51660
- Bottom (best-fit value) (Clytia MIHR [2]; [7]): 12.04
- HillSlope (best-fit value) (Clytia MIHR [2]; [7]): 1.48
- LogEC50 (best-fit value) (Clytia MIHR [2]; [7]): -6.272
- Span (best-fit value) (Clytia MIHR [2]; [7]): 87.97
- HillSlope (Clytia MIHR [2]; second dataset): 1.06
- LogEC50 (Clytia MIHR [2]; second dataset): -6.027
- Bottom (Clytia MIHR [2]; second dataset): 2165
- Span (Clytia MIHR [2]; second dataset): 21649
- Top (Clytia MIHR [2]; second dataset): 23814

Molecule: Nc1ncnc2c1nc(Br)n2[C@@H]1O[C@@H]2COP(=O)(O)O[C@H]2[C@H]1O [BrcAMP]
- Gonads spawning (number) ([3]; replicate 1, total 4): 4
- Percentage of spawning gonads ([3]; replicate 1, total 4): 100
- Gonads spawning (number) ([3]; replicate 2, total 18): 18
- Percentage of spawning gonads ([3]; replicate 2, total 18): 100
- Gonads spawning (number) ([3]; replicate 3, total 7): 7
- Percentage of spawning gonads ([3]; replicate 3, total 7): 100
- Percentage of spawning gonads (summary) ([3]; BrcAMP, MIHR K.O., summary of 3 replicates): 100
- Non-spawning gonads, MIHR KO NO [3, 8]: 0
- Spawning gonads, MIHR KO YES [3, 8]: 29
- Oocyte maturation (number) ([4]; replicate 1, total 15): 15
- Percentage of Oocytes maturing ([4]; replicate 1, total 15): 100.00
- Oocyte maturation (number) ([4]; replicate 2, total 26): 21
- Percentage of Oocytes maturing ([4]; replicate 2, total 26): 80.77
- Oocyte maturation (number) ([4]; replicate 3, total 18.00): 13
- Percentage of Oocytes maturing ([4]; replicate 3, total 18.00): 72.22
- % oocytes maturing, pooled ([4]; BrcAMP, WT, pooled n=59): 83.0508%
- Maturing oocytes, WT YES [4, 9]: 49
- Non-maturing oocytes, WT NO [4, 9]: 10
- Gonads spawning (number) [5, 10]: 12
- Percentage of spawning gonads [5, 10]: 100
- Gonads spawning (number) [5, 11]: 10
- Percentage of spawning gonads [5, 11]: 100
- Gonads spawning (number) [5, 12]: 10
- Percentage of spawning gonads [5, 12]: 100
- Non-spawning gonads, WT NO [5, 13]: 0
- Spawning gonads, WT YES [5, 13]: 32
- Percentage of spawning gonads (summary) ([5]; BrcAMP, wild type, summary of 3 replicates): 100
- Oocyte maturation (number) ([6]; replicate 1, total 31): 30
- Percentage of Oocytes maturing ([6]; replicate 1, total 31): 96.77
- Oocyte maturation (number) ([6]; replicate 2, total 14): 12
- Percentage of Oocytes maturing ([6]; replicate 2, total 14): 85.71
- Oocyte maturation (number) ([6]; replicate 3, total 47.00): 41
- Percentage of Oocytes maturing ([6]; replicate 3, total 47.00): 87.23
- % oocytes maturing, pooled ([6]; BrcAMP, MIHR KO, pooled n=92): 90.2174%
- Maturing oocytes, MIHR KO YES [6, 14]: 83
- Non-maturing oocytes, MIHR KO NO [6, 14]: 9
